Target: HSP90 (Homo sapiens, UniProt P07900)
Assay: HSP90 inhibition (HSP90 IC50)
Format: biochemical

Row | IC50 | SMILES
1 | < 500 nM | COc1cccc(C(=O)N[C@H]2C[C@H]3CC[C@@H](C2)N3c2ccc(C(=O)NCc3ccc(F)cc3F)cn2)c1C [N-[(2,4-difluorophenyl)methyl]-6-[3-endo-({[2-methyl-3-(methyloxy)phenyl]carbonyl}amino)-8-azabicyclo[3.2.1]oct-8-yl]pyridine-3-carboxamide]
2 | < 500 nM | COc1cccc(C(=O)N[C@H]2C[C@H]3CC[C@@H](C2)N3c2ccc(C(=O)NCc3ccc(N4CCN(C)CC4)c(F)c3)cn2)c1C [N-{[3-fluoro-4-(4-methylpiperazin-1-yl)phenyl]methyl}-6-[3-endo-({[2-methyl-3-(methyloxy)phenyl]carbonyl}amino)-8-azabicyclo[3.2.1]oct-8-yl]pyridine-3-carboxamide]
3 | < 500 nM | COc1cccc(C(=O)N[C@H]2C[C@H]3CC[C@@H](C2)N3c2ccc(C(=O)NCc3ccccc3F)cn2)c1C [N-[(2-fluorophenyl)methyl]-6-[3-endo-({[2-methyl-3-(methyloxy)phenyl]carbonyl}amino)-8-azabicyclo[3.2.1]oct-8-yl]pyridine-3-carboxamide]
4 | 500 to 999 nM | COc1ccc(CNC(=O)c2ccc(N3[C@@H]4CC[C@H]3C[C@@H](NC(=O)c3cccc(OC)c3C)C4)nc2)c(OC)c1 [N-{[2,4-bis(methyloxy)phenyl]methyl}-6-[3-endo-({[2-methyl-3-(methyloxy)phenyl]carbonyl}amino)-8-azabicyclo[3.2.1]oct-8-yl]pyridine-3-carboxamide]
5 | 500 to 999 nM | COc1cc(CNC(=O)c2ccc(N3[C@@H]4CC[C@H]3C[C@@H](NC(=O)c3cccc(OC)c3C)C4)nc2)ccc1F [N-{[4-fluoro-3-(methyloxy)phenyl]methyl}-6-[3-endo-({[2-methyl-3-(methyloxy)phenyl]carbonyl}amino)-8-azabicyclo[3.2.1]oct-8-yl]pyridine-3-carboxamide]
6 | 2000 to 10000 nM | COc1cccc(C(=O)N[C@H]2C[C@H]3CC[C@@H](C2)N3c2ccc(C(=O)NCCO)cn2)c1C [N-(2-hydroxyethyl)-6-[3-endo-({[2-methyl-3-(methyloxy)phenyl]carbonyl}amino)-8-azabicyclo[3.2.1]oct-8-yl]pyridine-3-carboxamide]
7 | 1000 to 2000 nM | COc1cccc(C(=O)N[C@H]2C[C@H]3CC[C@@H](C2)N3c2ccc(C(=O)NCCCOC(C)C)cn2)c1C [N-{3-[(1-methylethyl)oxy]propyl}-6-[3-endo-({[2-methyl-3-(methyloxy)phenyl]carbonyl}amino)-8-azabicyclo[3.2.1]oct-8-yl]pyridine-3-carboxamide]
8 | 2000 to 10000 nM | COc1cccc(C(=O)N[C@H]2C[C@H]3CC[C@@H](C2)N3c2ccc(C(=O)NCc3cccc(OC)c3OC)cn2)c1C [N-{[2,3-bis(methyloxy)phenyl]methyl}-6-[3-endo-({[2-methyl-3-(methyloxy)phenyl]carbonyl}amino)-8-azabicyclo[3.2.1]oct-8-yl]pyridine-3-carboxamide]
9 | 1000 to 2000 nM | COc1cccc(C(=O)NC2CC3CCC(C2)N3c2ccc(C(=O)NCC(O)CO)cn2)c1C (stereo not drawn) [N-(2,3-dihydroxypropyl)-6-[3-endo-({[2-methyl-3-(methyloxy)phenyl]carbonyl}amino)-8-azabicyclo[3.2.1]oct-8-yl]pyridine-3-carboxamide]
10 | 2000 to 10000 nM | COc1cccc(C(=O)N[C@H]2C[C@H]3CC[C@@H](C2)N3c2ccc(C(=O)NN)cn2)c1C [N-{8-[5-(hydrazinocarbonyl)pyridin-2-yl]-8-azabicyclo[3.2.1]oct-3-endo-yl}-2-methyl-3-(methyloxy)benzamide]

Continued, molecule first:

Row | SMILES | IC50
11 | CC(=O)c1ccc(N2[C@@H]3CC[C@H]2C[C@@H](NC(=O)c2cc(NC4CCC(C(F)(F)F)CC4)c(C(N)=O)cc2C)C3)nc1 (stereo partly drawn) [N-[8-(5-acetylpyridin-2-yl)-8-azabicyclo[3.2.1]oct-3-endo-yl]-2-methyl-5-{[4-(trifluoromethyl)cyclohexyl]amino} benzene-1,4-dicarboxamide] | < 500 nM
12 | Cc1cc(C(=O)NC2CC3CCC(C2)N3c2ccc(C(=O)N[C@@H]3CCCN(C)C3)cn2)c(C)cc1C(N)=O (stereo partly drawn) [2,5-dimethyl-N-{8-[5-({[(3R)-1-methylpiperidin-3-yl]amino}carbonyl)pyridin-2-yl]-8-azabicyclo[3.2.1]oct-3-endo-yl}benzene-1,4-dicarboxamide] | < 500 nM
13 | Cc1cc(C(=O)NC2CC3CCC(C2)N3c2ccc(C(=O)N[C@@H]3CCN(C)C3)cn2)c(C)cc1C(N)=O (stereo partly drawn) [2,5-dimethyl-N-{8-[5-({[(3R)-1-methylpyrrolidin-3-yl]amino}carbonyl)pyridin-2-yl]-8-azabicyclo[3.2.1]oct-3-endo-yl}benzene-1,4-dicarboxamide] | 500 to 999 nM
14 | CC(C)OCCNc1cc(C(=O)N[C@H]2C[C@H]3CC[C@@H](C2)N3c2ccc(C(=O)C3CC3)cn2)ccc1C(N)=O [N4-{8-[5-(cyclopropylcarbonyl)pyridin-2-yl]-8-azabicyclo[3.2.1]oct-3-endo-yl}-2-({2-[(1-methylethyl)oxy]ethyl}amino)benzene-1,4-dicarboxamide] | < 500 nM
15 | NC(=O)c1cc(Br)c(C(=O)N[C@H]2C[C@H]3CC[C@@H](C2)N3c2ccc(C(=O)C3CC3)cn2)cc1NCC1CC1 [2-bromo-N-{8-[5-(cyclopropylcarbonyl)pyridin-2-yl]-8-azabicyclo[3.2.1]oct-3-endo-yl}-5-[(cyclopropylmethyl)amino]benzene-1,4-dicarboxamide] | < 500 nM
16 | CCC(CC)Nc1cc(C(=O)N[C@H]2C[C@H]3CC[C@@H](C2)N3c2ccc(C(=O)C3CC3)cn2)c(Cl)cc1C(N)=O [2-chloro-N-{8-[5-(cyclopropylcarbonyl)pyridin-2-yl]-8-azabicyclo[3.2.1]oct-3-endo-yl}-5-[(1-ethylpropyl)amino]benzene-1,4-dicarboxamide] | < 500 nM
17 | COc1cccc(C(=O)NC2CC3CCC(C2)N3c2ccc(C(=O)NCC3CCNC3)cn2)c1C (stereo not drawn) | < 500 nM
18 | CC(=O)c1ccc(N2C3CCC2CC(NC(=O)c2ccc(C(N)=O)c(N[C@@H]4CCOC4)c2)C3)nc1 (stereo partly drawn) [N4-[8-(5-acetylpyridin-2-yl)-8-azabicyclo[3.2.1]oct-3-endo-yl]-2-[(3R)-tetrahydrofuran-3-ylamino]benzene-1,4-dioarboxamide] | < 500 nM
19 | COc1c(C(N)=O)ccc(C(=O)NC2CC3CCC(C2)N3c2ccc(C(=O)N[C@@H](C)c3ccc(N4CCN(C)CC4)cc3)cn2)c1C (stereo partly drawn) [2-methyl-3-(methyloxy)-N-(8-{5-[({(1S)-1-[4-(4-methylpiperazin-1-yl)phenyl]ethyl}amino)carbonyl]pyridin-2-yl}-8-azabicyclo[3.2.1]oct-3-endo-yl)benzene-1,4-dicarboxamide] | < 500 nM
20 | CCC(CC)Nc1cc(C(=O)N[C@H]2C[C@H]3CC[C@@H](C2)N3c2ccc(C(=O)C3CC3)cn2)ccc1C(N)=O [N4-{8-[5-(cyclopropylcarbonyl)pyridin-2-yl]-8-azabicyclo[3.2.1]oct-3-endo-yl}-2-[(1-ethylpropyl)amino]benzene-1,4-dicarboxamide] | < 500 nM
21 | NC(=O)c1ccc(N2[C@@H]3CC[C@H]2C[C@@H](NC(=O)c2ccc(C(N)=O)c(OCCN4CCOCC4)c2)C3)nc1 [N4-{8-[5-(aminocarbonyl)pyridin-2-yl]-8-azabicyclo[3.2.1]oct-3-endo-yl}-2-[(2-morpholin-4-ylethyl)oxybenzene-1,4-dicarboxylate] | 1000 to 2000 nM
22 | CC(=O)c1ccc(N2[C@@H]3CC[C@H]2C[C@@H](NC(=O)c2ccc(C(N)=O)c(NCC(F)(F)C(F)(F)C(F)(F)F)c2)C3)nc1 [N4-[8-(5-acetylpyridin-2-yl)-8-azabicyclo[3.2.1]oct-3-endo-yl]-2-[(2,2,3,3,4,4,4-heptafluorobutyl)amino]benzene-1,4-dicarboxamide] | 500 to 999 nM
23 | Cc1cccc(C(=O)N[C@H]2C[C@H]3CC[C@@H](C2)N3c2ccc(C(=O)NCc3ccccc3)cn2)c1C [6-(3-endo-{[(2,3-dimethylphenyl)carbonyl]amino}-8-azabicyclo[3.2.1]oct-8-yl)-N-(phenylmethyl)pyridine-3-carboxamide] | 2000 to 10000 nM
24 | CCOC(=O)N1CCC(NC(=O)c2ccc(N3[C@@H]4CC[C@H]3C[C@@H](NC(=O)c3cccc(OC)c3C)C4)nc2)CC1 [ethyl 4-[({6-[3-endo-({[2-methyl-3-(methyloxy)phenyl]carbonyl}amino)-8-azabicyclo[3.2.1]oct-8-yl]pyridin-3-yl}carbonyl)amino]piperidine-1-carboxylate] | < 500 nM
25 | CC(=O)c1ccc(N2[C@@H]3CC[C@H]2C[C@@H](NC(=O)c2ccc(C(N)=O)c(NC4CCOC4)c2)C3)nc1 (stereo partly drawn) [N4-[8-(5-acetylpyridin-2-yl)-8-azabicyclo[3.2.1]oct-3-endo-yl]-2-(tetrahydrofuran-3-ylamino)benzene-1,4-dicarboxamide] | < 500 nM
26 | COc1cccc(C(=O)NC2CC3CCC(C2)N3c2ccc(C(=O)NC(C)c3ccc(N4CCNCC4)nc3)cn2)c1C (stereo not drawn) [6-[3-endo-({[2-methyl-3-(methyloxy)phenyl]carbonyl}amino)-8-azabicyclo[3.2.1]oct-8-yl]-N-[1-(6-piperazin-1-ylpyridin-3-yl)ethyl]pyridine-3-carboxamide] | < 500 nM
27 | Cc1cc(C(N)=O)c(N[C@H]2CCOC2)cc1C(=O)NC1CC2CCC(C1)N2c1ccc(C(=O)C2CC2)cn1 (stereo partly drawn) [N-{8-[5-(cyclopropylcarbonyl)pyridin-2-yl]-8-azabicyclo[3.2.1]oct-3-endo-yl}-2-methyl-5-[(3S)-tetrahydrofuran-3-ylamino]benzene-1,4-dicarboxamide] | < 500 nM
28 | NC(=O)c1ccc(C(=O)N[C@H]2C[C@H]3CC[C@@H](C2)N3c2ccc(C(=O)C3CCCC3)cn2)cc1NCC1CC1 [N4-{8-[5-(cyclopentylcarbonyl)pyridin-2-yl]-8-azabicyclo[3.2.1]oct-3-endo-yl}-2-[(cyclopropylmethyl)amino]benzene-1,4-dicarboxamide] | 2000 to 10000 nM
29 | CCC(CC)Nc1cc(C(=O)N[C@H]2C[C@H]3CC[C@@H](C2)N3c2ccc(C(=O)C3CC3)cn2)c(Br)cc1C(N)=O [2-bromo-N-{8-[5-(cyclopropylcarbonyl)pyridin-2-yl]-8-azabicyclo[3.2.1]oct-3-endo-yl}-5-[(1-ethylpropyl)amino]benzene-1,4-dicarboxamide] | < 500 nM
30 | Cc1cc(C(N)=O)c(NCC2CC2)cc1C(=O)N[C@H]1C[C@H]2CC[C@@H](C1)N2c1ccc(C(=O)C2CC2)cn1 [N-{8-[5-(cyclopropylcarbonyl)pyridin-2-yl]-8-azabicyclo[3.2.1]oct-3-endo-yl)-5-[(cyclopropylmethyl)amino]-2-methylbenzene-1,4-dicarboxamide] | < 500 nM
